One may read the pEC50 as −log10 of the EC50, conventionally taken in molar units.

pEC50: −log10 of the molar value. Counter-ions that a name gives are not always drawn.

This data set relates to zebrafish lateral line hair cells. The data set is described as follows: PEPITA quantification of ototoxicity in YO-PRO-1-stained AB zebrafish larvae. Type of data set: in vivo. The method, then:
Therefore, at 5 dpf, larvae were transferred to 12-well plates (5–11 fish per well, 1 well per condition) containing the relevant compound or combination diluted with ICS water, or ICS water alone or high-dose neomycin to serve as controls. Unless otherwise noted, fish were exposed to drug (either an individual compound or a pairwise combination of compounds) for 4 h, as a balance between longer exposure times for accommodating varied kill kinetics and shorter exposure times for technical tractability. Treatments with multiple drugs involved co-administering a prepared solution consisting of both drugs with defined concentrations in ICS water.
Fluorescence microscopy was performed using a Keyence BZ-X800 microscope imaging system, which enables high-throughput semi-automated imaging of 96-well plates.
Each image was masked using automated object detection to include only the fish itself. Manual masks were created on occasion for avoidance of fluorescent contamination, adjusted segmenting for myo6b::gfp fish to remove inner ear HC fluorescence, or exclusion of dead or damaged fish. Each fish was then adjusted for autofluorescence using the fluorophore-free red channel and scored based on the sum of green fluorescence pixel values surrounding 10 of the top 15 brightest pixels in the masked image (Figures 1B–E). These scores were standardized by comparison with the median score of wells containing untreated fish and a score representing no remaining HC fluorescence, both derived for each plate.
Wells where the expected response ( Ra×Rb ) and observed response ( Rab ) were both less than 10% or greater than 90% were excluded from aggregation to reduce the effect of our choice of dose range. The remaining wells were summarized by averaging into a composite interaction score for the combination; we refer to this metric as the “windowed excess over Bliss” (wEOB).

Consider `NC[C@@H]1O[C@H](O[C@H]2[C@@H](O)[C@H](O[C@@H]3[C@@H](O)[C@H](N)C[C@H](N)[C@H]3O[C@H]3O[C@H](CN)[C@@H](O)[C@H](O)[C@H]3N)O[C@@H]2CO)[C@H](N)[C@@H](O)[C@@H]1O` [Neomycin, Neomycin sulfate hydrate], for which the “RFU (residual HC fluorescence)” value was found to be 10% (AZM 0 μM, NEO 6.4 μM, 4 h) and 88% (AZM 96 μM + NEO 6.4 μM, 4 h). The “windowed excess over Bliss (wEOB)” value (AZM + NEO checkerboard, negative = antagonism) is −0.36. Moreover, for the setting “NEO alone, 4 h”, the “dose needed to elicit 75% maximal HC damage (EC75)” value amounted to 3300 nM. The “ototoxic interaction with AZM” value (co-administration with AZM) is given as “otoprotective antagonistic interactions”. The “shift toward antagonism in lateral line HC damage as compared to inhibition of the bacterial species on average” value (interaction with AZM, zebrafish wEOB vs average of E. coli, M. abscessus, S. aureus) turned out to be 44 %pt. The EC75 shift is, setting by setting: (ototoxin co-administered with azithromycin (AZM) vs administered alone) 13 fold; (ototoxin co-administered with azithromycin (AZM) vs administered alone, listed as Neomycin (NEO)) 13-fold; (ototoxin co-administered with erythromycin (ERY) vs administered alone, listed as NEO) 8 fold; (ototoxin co-administered with erythromycin (ERY) vs administered alone, listed as Neomycin (NEO)) 8-fold. The “ototoxic interaction with clarithromycin (CLM)” value (preliminary experiments) is listed as “antagonistic interactions”. Moreover, the pEC50 (representative experiment, HC damage dose response, read-out: EC50 (PEPITA, relative fluorescence units)) was 5.85.

Values taken from article PMC10955247, “In vivo screening for toxicity-modulating drug interactions identifies antagonism that protects against ototoxicity in zebrafish” (Frontiers in Pharmacology, 2024).
